From patent publication US8022225B2, “Triazole derivative” (Taisho Pharmaceutical Co., Ltd, priority 2004, dated 2011)

How the values were obtained:
human Edg-1(S1P1) [1] = target: T1, human Edg-1(S1P1) (Homo sapiens, UniProt P21453); experiment: Cell system binding test: inhibition of [3H]-S1P binding to Edg-1(S1P1) gene transferred HEK-293 cells; conditions: 10 μM compound, [3H]-S1P 10 nM, read-out: Cell system binding test % inhibition (10 μM)
T1 construct: expressed in transfected cells; host or cells: HEK-293
Experimental: Cells (1×10^5 cells/well) obtained as described above were seeded in poly-L-lysine-coated 96-well plates (Corning Incorporated), and then incubated in a 5% carbon dioxide gas incubator for 12 hours at 37° C. with the use of an MEM medium (Invitrogen Corporation) containing 100 U/mL of penicillin, 100 μg/mL of streptomycin, a 1% MEM nonessential amino acid solution, and 10% FCS. […] After the cells were washed twice with the buffer, they were solubilized with 100 μL of Opti Phase Supermix (produced by Perkin-Elmer), and measured for radioactivity by means of Micro Beta (produced by Perkin-Elmer).
Inhibition rate(%)=[1−(A−C)/(B−C)]×100

human Edg-1(S1P1) [2] = target: T1, human Edg-1(S1P1); experiment: Membrane system binding test: inhibition of [33P]-S1P binding to the membrane fraction of Edg-1(S1P1) gene transferred HEK-293 cells; conditions: 10 μM compound; [33P]-S1P 0.1 nM; membrane fraction of Edg-1(S1P1) gene transferred HEK-293 cells; read-out: Membrane system binding test % inhibition (10 μM)
Experimental: The membrane fraction was obtained by treating the cells with a solubilizing buffer (1 mM Tris/HCl, pH 7.2) for 10 minutes on ice, centrifuging the system (1000×g, 5 min) to remove insoluble fractions, and then centrifuging the system (40000×g, 30 min, 4° C.). The resulting membrane fraction was dissolved in a binding buffer (20 mM Tris-HCl, pH 7.4, 100 mM NaCl, 15 mM NaF, 2 mM deoxypyridoxine, 4 mg/mL fatty acid-free BSA), and then [^33P]-S1P (produced by ARC, end concentration 0.1 nM) and a DMSO solution of the test compound (end concentration of the compound: 10^−5 M, end concentration of DMSO: 0.1%) were added, followed by stirring the mixture and subsequently treating it for 1 hour at 30° C. Using a harvester, the membrane fraction was harvested onto unifilter-96GF/C filter (produced by Perkin-Elmer). Then, the filter with the membrane fraction was washed 4 times with the binding buffer, and the filter was dried. To the filter, 25 μL Microscint 0 (produced by Perkin-Elmer) was added, and the assay system was measured for radioactivity by means of Top Count NXT (Packard). Based on the radioactivity, the amount (A) of binding of [^33P]-S1P to the membrane fraction upon addition of the compound was calculated.
The same procedure was performed in the absence of the test compound, and the amount (B) of binding of [^33P]-S1P was calculated. Moreover, the same procedure was performed in the absence of the test compound with the use of HEK-293 cells, to which the Edg-1(S1P1) gene had not been transferred, and the background amount (C) of binding of [^33P]-S1P was calculated.
The Edg-1(S1P1) binding inhibition rate of the compound, calculated from the following equation, is shown in […]

T1 sequence (P21453 whole entry): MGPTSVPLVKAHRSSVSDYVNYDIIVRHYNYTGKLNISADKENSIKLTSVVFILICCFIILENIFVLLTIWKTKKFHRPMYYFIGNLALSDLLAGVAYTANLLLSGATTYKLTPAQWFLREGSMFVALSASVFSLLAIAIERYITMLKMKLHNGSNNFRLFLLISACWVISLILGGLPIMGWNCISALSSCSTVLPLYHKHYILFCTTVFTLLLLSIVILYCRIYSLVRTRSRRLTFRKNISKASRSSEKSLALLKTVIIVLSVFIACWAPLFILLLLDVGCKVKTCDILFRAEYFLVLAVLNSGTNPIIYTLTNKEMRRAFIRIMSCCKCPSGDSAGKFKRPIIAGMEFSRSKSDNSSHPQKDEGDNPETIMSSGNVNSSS

Row | inhibition at 10 µM (human Edg-1(S1P1) [1]) [%] | inhibition at 10 µM (human Edg-1(S1P1) [2]) [%] | Structure (SMILES)
1 | 84.4 | 95 | CCn1c(SCCOc2ccccc2)nnc1[C@@H](C)NS(=O)(=O)c1ccc(Cl)cc1 [Compound 23]
2 | 82.6 | 60.6 | CCn1c(SCC(=O)OC)nnc1[C@@H](C)NS(=O)(=O)c1ccc(Cl)cc1 [Compound 24]
3 | 86.9 | 76 | CC#CCSc1nnc([C@@H](C)NS(=O)(=O)c2ccc(Cl)cc2)n1CC [Compound 27]
4 | 93 | 95.9 | CCCCSc1nnc([C@@H](C)NS(=O)(=O)c2ccc(Cl)cc2)n1CC [Compound 29]
5 | 91.5 | 76.4 | CCn1c(SCC2CCC2)nnc1[C@@H](C)NS(=O)(=O)c1ccc(Cl)cc1 [Compound 34]
6 | 91.9 | 87.7 | CCn1c(SCC2CCCCCCC2)nnc1[C@@H](C)NS(=O)(=O)c1ccc(Cl)cc1 [Compound 35]
7 | 89.5 | 104 | CCn1c(SC2CCc3ccccc3C2)nnc1[C@@H](C)NS(=O)(=O)c1ccc(Cl)cc1 (stereo partly drawn) [Compound 36]
8 | 93.8 | 86.7 | CCn1c(SCCCc2ccccc2)nnc1[C@@H](C)NS(=O)(=O)c1ccc(Cl)cc1 [Compound 39]
9 | 87 | 46.1 | CCn1c(SC(c2ccccc2)c2ccccc2)nnc1[C@@H](C)NS(=O)(=O)c1ccc(Cl)cc1 [Compound 40]
10 | 87.3 | 97.3 | CCn1c(SC(C)c2ccccc2)nnc1[C@@H](C)NS(=O)(=O)c1ccc(Cl)cc1 (stereo partly drawn) [Compound 41]
11 | 85.4 | 98.8 | CCn1c(SCc2ccccc2Cl)nnc1[C@@H](C)NS(=O)(=O)c1ccc(Cl)cc1 [Compound 42]
12 | 93 | 99.6 | CCn1c(SCc2cccc(Cl)c2)nnc1[C@@H](C)NS(=O)(=O)c1ccc(Cl)cc1 [Compound 44]
13 | 91.7 | 91.3 | CCn1c(SCc2ccc(Cl)cc2)nnc1[C@@H](C)NS(=O)(=O)c1ccc(Cl)cc1 [Compound 45]
14 | 90.4 | 99.5 | CCn1c(SCc2ccc(C(F)(F)F)cc2)nnc1C(C)NS(=O)(=O)c1ccc(Cl)cc1 (stereo not drawn) [Compound 46]
15 | 93 | 101 | CCn1c(SCc2cccc3ccccc23)nnc1[C@@H](C)NS(=O)(=O)c1ccc(Cl)cc1 [Compound 48]
16 | 95.3 | 96.2 | CCn1c(SC/C=C\COCc2ccccc2)nnc1[C@@H](C)NS(=O)(=O)c1ccc(Cl)cc1 [Compound 50]
17 | 93.6 | 89.1 | CCn1c(SC(C(=O)OC)c2ccccc2)nnc1[C@@H](C)NS(=O)(=O)c1ccc(Cl)cc1 (stereo partly drawn) [Compound 52]
18 | 90.8 | 89.3 | CCSc1nnc([C@@H](C)NS(=O)(=O)c2ccc(Cl)cc2)n1CC [Compound 53]
19 | 94.3 | 104 | CCn1c(SC2CCC2)nnc1[C@@H](C)NS(=O)(=O)c1ccc(Cl)cc1 [Compound 55]
20 | 91.9 | 98.1 | CCn1c(SCc2ccc(C(=O)OC)cc2)nnc1[C@@H](C)NS(=O)(=O)c1ccc(Cl)cc1 [Compound 58]
21 | 93.2 | 96.9 | CCn1c(SCc2ccc(C)cc2)nnc1[C@@H](C)NS(=O)(=O)c1ccc(Cl)cc1 [Compound 59]
22 | 90.3 | 97.2 | CCn1c(SCc2ccc(SC)cc2)nnc1[C@@H](C)NS(=O)(=O)c1ccc(Cl)cc1 [Compound 60]
23 | 92.9 | 90.6 | CCn1c(SCCc2ccccn2)nnc1[C@@H](C)NS(=O)(=O)c1ccc(Cl)cc1 [Compound 62]
24 | 93.7 | 99.7 | CCn1c(SCc2ccccn2)nnc1[C@@H](C)NS(=O)(=O)c1ccc(Cl)cc1 [Compound 63]

More lines, now with the values behind:

Row | Structure (SMILES) | inhibition at 10 µM (human Edg-1(S1P1) [1]) [%] | inhibition at 10 µM (human Edg-1(S1P1) [2]) [%]
25 | CCn1c(SCCc2ccc(Cl)cc2)nnc1[C@@H](C)NS(=O)(=O)c1ccc(Cl)cc1 [Compound 19] | 82.5 | 100
26 | CCCC(CCC)Sc1nnc([C@@H](C)NS(=O)(=O)c2ccc(Cl)cc2)n1CC [Compound 20] | 84.3 | 74.3
27 | C/C=C/CSc1nnc([C@@H](C)NS(=O)(=O)c2ccc(Cl)cc2)n1CC [Compound 21] | 82.2 | 74.8
28 | CCn1c(SCc2cccc(C)c2)nnc1[C@@H](C)NS(=O)(=O)c1ccc(Cl)cc1 [Compound 22] | 82.1 | 96.9
29 | CCn1c(SCC2CCCCC2)nnc1[C@@H](C)NS(=O)(=O)c1ccc(Cl)cc1 [Compound 25] | 81.5 | 77.8
30 | CCn1c(SCCSC)nnc1[C@@H](C)NS(=O)(=O)c1ccc(Cl)cc1 [Compound 26] | 84 | 61.1
31 | CCn1c(SCC=C(C)C)nnc1[C@@H](C)NS(=O)(=O)c1ccc(Cl)cc1 [Compound 28] | 93.1 | 82.8
32 | CCCCCCCCSc1nnc([C@@H](C)NS(=O)(=O)c2ccc(Cl)cc2)n1CC [Compound 30] | 91.9 | 100
33 | CCn1c(SCC2CCO2)nnc1[C@@H](C)NS(=O)(=O)c1ccc(Cl)cc1 (stereo partly drawn) [Compound 31] | 90.2 | 90
34 | CCn1c(SCc2ccccc2C)nnc1[C@@H](C)NS(=O)(=O)c1ccc(Cl)cc1 [Compound 32] | 89.1 | 99.1
35 | CCn1c(SCC(C)C)nnc1[C@@H](C)NS(=O)(=O)c1ccc(Cl)cc1 [Compound 33] | 91.7 | 90
36 | CCn1c(SCCOCc2ccccc2)nnc1[C@@H](C)NS(=O)(=O)c1ccc(Cl)cc1 [Compound 37] | 92.7 | 92.8
37 | CCn1c(SC/C=C/c2ccccc2)nnc1[C@@H](C)NS(=O)(=O)c1ccc(Cl)cc1 [Compound 38] | 91.5 | 81
38 | CCn1c(SCc2c(Cl)cccc2Cl)nnc1[C@@H](C)NS(=O)(=O)c1ccc(Cl)cc1 [Compound 43] | 90.5 | 102
39 | CCn1c(SCC(=O)c2ccccc2)nnc1[C@@H](C)NS(=O)(=O)c1ccc(Cl)cc1 [Compound 47] | 92.5 | 99.2
40 | CCn1c(SC2CCOC2)nnc1[C@@H](C)NS(=O)(=O)c1ccc(Cl)cc1 (stereo partly drawn) [Compound 49] | 94.8 | 93.9
41 | CCn1c(SC2CCc3ccccc32)nnc1[C@@H](C)NS(=O)(=O)c1ccc(Cl)cc1 (stereo partly drawn) [Compound 51] | 91.2 | 93
42 | CCn1c(SC(C)C)nnc1[C@@H](C)NS(=O)(=O)c1ccc(Cl)cc1 [Compound 54] | 88.7 | 105
43 | CCn1c(SCc2ccc(C#N)cc2)nnc1[C@@H](C)NS(=O)(=O)c1ccc(Cl)cc1 [Compound 56] | 87.1 | 91
44 | CCn1c(SCC(F)F)nnc1[C@@H](C)NS(=O)(=O)c1ccc(Cl)cc1 [Compound 57] | 92.6 | 100
45 | CCn1c(SCCc2ccccc2)nnc1[C@@H](C)NS(=O)(=O)c1ccc(Cl)cc1 [Compound 61] | 95 | 98.9
